Tested on: amygdala kindled rat model of partial epilepsy
Assay: In Vivo, Amygdala Kindling Assay
Design: species or system Sprague-Dawley rats
Source text: The development of amygdala kindling is an established model of epileptogenesis. (Amano K, Hamada K, Yagi K, Seino M. Antiepileptic effects of topiramate on amygdaloid kindling in rats. Epilepsy Res. 1998 July;31(2):123-8; Barton M E, White H S. The effect of CGX-1007 and CI-1041, novel NMDA receptor antagonists, on kindling acquisition and expression. Epilepsy Res. 2004 March;59(1):1-12; Loscher W, Honack D, Rundfeldt C. Antiepileptogenic effects of the novel anticonvulsant levetiracetam (ucb L059)in the kindling model of temporal lobe epilepsy. J Pharmacol Exp Ther. 1998 February;284(2):474-9; McNamara J O. Analyses of the molecular basis of kindling development. Psychiatry Clin Neurosci. 1995 June; 49(3):S175-8. Review.; Morimoto K, Katayama K, Inoue K, Sato K. Effects of competitive and noncompetitive NMDA receptor antagonists on kindling and LTP. Pharmacol Biochem Behav. 1991 December;40(4):893-9; Racine, R. J. 1972. Modification of seizure activity by electrical stimulation. II. Motor seizure. Electroencephalogr. Clin. Neurophysiol. 32, 281-294). The kindled rat model of partial epilepsy is an accepted model of epileptogenesis (McNamara J O. Analyses of the molecular basis of kindling development. Psychiatry Clin Neurosci. 1995 June;49(3):S175-8. Review.).
Briefly, the assay procedure was as follows. Adult male, Sprague-Dawley rats weighing between 250-300 g were obtained from Charles River, Wilmington, Mass. were used for experimental procedures. All animals were housed on a 12:12 light dark cycle and permitted free access to both food (Prolab RMH 3000) and water except when removed from the home cage for experimental procedures. Animals were cared for in a matter consistent with the recommendations detailed in the National Research Council Publication, “Guide for the Care and Use of Laboratory Animals” in a temperature controlled, pesticide-free facility. Kindling stimulations were routinely performed between 9 AM-2 PM to avoid any circadian variations.
Compound #1 was triturated in a small volume of 0.5% methylcellulose, sonicated for 10 min, and brought to a final volume with 0.5% methylcellulose. The compound was administered systemically (i.p.) in a volume of 0.04 ml/10 g body weight and all tests were conducted at the pre-determined time of peak effect of 0.5 hours after i.p. administration.
The ability of Compound #1 to block the expression of amygdala kindled seizures was determined. For this study, rats were anaesthetized with a ketamine (120 mg/kg, i.p.) and xylazine (12 mg/kg, i.p.) cocktail. […]
Amygdala kindling was then performed according to the following protocol (Barton and White, 2004). […] The behavioral seizure score and AD duration was recorded for rats in each treatment group. […]

NS(=O)(=O)NCc1csc2ccccc12 [Compound #1, N-(benzo[b]thien-3-ylmethyl)-sulfamide]
behavioral seizure score (Racine scale) at the conclusion of the drug- and stimulus-free period (100 mg/kg i.p. 30 min before daily amygdala stimulation (200 μA, 2 s) for up to 13 days, re-challenged without drug after one-week stimulus- and drug-free period, n=10 rats, vehicle=4.6±0.24): 0.1±0.11 | after-discharge (AD) duration over the kindling acquisition phase, versus vehicle (100 mg/kg i.p., daily stimulation, days 1-13, progressive increase in both groups): No statistical difference | acquisition of the full generalized kindled seizure (100 mg/kg i.p., rats, kindling acquisition): prevented the acquisition of the full generalized kindled seizure | delay of the acquisition of kindling (stimulated in the absence of drug after the drug-free week, seizure score rose parallel to vehicle-treated rats): delayed the acquisition of kindling by several days

Source: patent US20070191460A1, “Use of Benzo-Heteroaryl Sulfamide Derivatives for the Treatment of Disease Modification / Epileptogenesis” (priority 2006, published 2007)
